ChEMBL document CHEMBL1201862, “PubChem BioAssay data set” (2004)
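Following 48 hours of exposure in 96-well plates, responses at five concentrations were used to interpolate endpoints linearly. GI50 = concentration required for 50% inhibition of growth.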 Calls of active or inactive are those of the source. Rule as the data show it: active = GI50 up to about 1.1 µM and inactive = higher.

Key:
Assay in all cases: NCI tumour cell line growth inhibition, 48 h
DU-145 = system: DU-145
EKVX = system: EKVX
HCC 2998 = system: HCC 2998
HCT-116 = system: HCT-116
HOP-62 = system: HOP-62
LOX IMVI = system: LOX IMVI
MCF7 = system: MCF7
MDA-MB-231 = system: MDA-MB-231
NCI-H23 = system: NCI-H23
NCI-H460 = system: NCI-H460
OVCAR-3 = system: OVCAR-3
OVCAR-8 = system: OVCAR-8
PC-3 = system: PC-3
RPMI-8226 = system: RPMI-8226
SF-268 = system: SF-268
SNB-75 = system: SNB-75
SR = system: SR
UACC-257 = system: UACC-257
UO-31 = system: UO-31
DLD-1 = system: DLD-1

| Structure (SMILES) | GI50 (DU-145) | GI50 (EKVX) | GI50 (HCC 2998) | GI50 (HCT-116) | GI50 (HOP-62) | GI50 (LOX IMVI) | GI50 (MCF7) | GI50 (MDA-MB-231) | GI50 (NCI-H23) | GI50 (NCI-H460) | GI50 (OVCAR-3) | GI50 (OVCAR-8) | GI50 (PC-3) | GI50 (RPMI-8226) | GI50 (SF-268) | GI50 (SNB-75) | GI50 (SR) | GI50 (UACC-257) | GI50 (UO-31) | GI50 (DLD-1) |
| --- | --- | --- | --- | --- | --- | --- | --- | --- | --- | --- | --- | --- | --- | --- | --- | --- | --- | --- | --- | --- |
| Cc1c(/C=N/NC(=S)Nc2ccc(Cl)cc2)c(=O)n(-c2ccccc2)n1C | 42.7 µM (inactive) | 22.6 µM (inactive) | > 100 µM (inactive) | 24.9 µM (inactive) | 14.3 µM (inactive) | 32.6 µM (inactive) | 19.8 µM (inactive) | 0.637 µM (active) | 24.8 µM (inactive) | 25.4 µM (inactive) | > 42 µM (inactive) | 24.9 µM (inactive) | > 52.1 µM (inactive) | 39.1 µM (inactive) | 15.8 µM (inactive) | 15.9 µM (inactive) | 4.93 µM (inactive) | > 83.6 µM (inactive) | 32.1 µM (inactive) | – |
| C=C1CC2(CCOc3ccc(Cl)cc32)OC1=O (configuration not stated) | 12.7 µM (inactive) | 3.42 µM (inactive) | 22.5 µM (inactive) | 1.63 µM (inactive) | 5.35 µM (inactive) | 2.44 µM (inactive) | 0.598 µM (active) | 6.44 µM (inactive) | 5.22 µM (inactive) | 3.61 µM (inactive) | 1.39 µM (inactive) | 4.59 µM (inactive) | 1.95 µM (inactive) | 0.667 µM (active) | 6.22 µM (inactive) | 3.61 µM (inactive) | 2.37 µM (inactive) | 5.74 µM (inactive) | 2.83 µM (inactive) | – |
| COC(=O)c1c(CC(Cc2ccc3c(c2)CCCC3)C(=O)O)ccc2c1CCCC2 (configuration not stated) | 39.6 µM (inactive) | 25.2 µM (inactive) | 32.4 µM (inactive) | 17.9 µM (inactive) | 22.8 µM (inactive) | 17.5 µM (inactive) | 31.6 µM (inactive) | 27.9 µM (inactive) | 60.4 µM (inactive) | 21.9 µM (inactive) | 18.8 µM (inactive) | 36.2 µM (inactive) | 36.4 µM (inactive) | 27.6 µM (inactive) | 37.1 µM (inactive) | 36.4 µM (inactive) | 30.5 µM (inactive) | 16 µM (inactive) | 25.8 µM (inactive) | – |
| N#CC(C(=O)/C(=N/NC(=O)c1ccccc1O)C(C#N)c1ccc(Cl)cc1)c1ccc(Cl)cc1 (configuration not stated) | – | 22.4 µM (inactive) | – | 17.4 µM (inactive) | 20.7 µM (inactive) | 14.3 µM (inactive) | – | – | 11.5 µM (inactive) | 15.7 µM (inactive) | 20 µM (inactive) | 13.4 µM (inactive) | – | 15.8 µM (inactive) | 16.6 µM (inactive) | 3.56 µM (inactive) | – | 14.6 µM (inactive) | 17.1 µM (inactive) | 11.9 µM (inactive) |
| N#Cc1ccc2cc3c(cc2c1)OCO3 | – | – | > 100 µM (inactive) | 91 µM (inactive) | > 100 µM (inactive) | > 100 µM (inactive) | – | – | > 100 µM (inactive) | > 100 µM (inactive) | > 100 µM (inactive) | – | – | 54.5 µM (inactive) | > 100 µM (inactive) | 26 µM (inactive) | – | – | 21.5 µM (inactive) | > 100 µM (inactive) |
| C[C@H](NC(=O)c1ccc(CNC(=O)/C=C/c2cccc(Oc3ccccc3)c2)cc1)c1ccccc1 | > 100 µM (inactive) | > 100 µM (inactive) | > 100 µM (inactive) | > 100 µM (inactive) | 36.9 µM (inactive) | > 100 µM (inactive) | > 100 µM (inactive) | > 100 µM (inactive) | > 100 µM (inactive) | > 100 µM (inactive) | > 100 µM (inactive) | > 100 µM (inactive) | > 100 µM (inactive) | > 100 µM (inactive) | > 100 µM (inactive) | 15.2 µM (inactive) | 26.8 µM (inactive) | > 100 µM (inactive) | 46.1 µM (inactive) | – |
| CC(C)N(C(C)C)P(OCCC#N)OC1CC(n2cnc3c(=O)[nH]cnc32)OC1COC(=O)NCCCCCCNC(=O)OC(C)(C)c1ccc(-c2ccccc2)cc1 (configuration not stated) | – | > 100 µM (inactive) | 25.5 µM (inactive) | 39.1 µM (inactive) | 23.4 µM (inactive) | 18.2 µM (inactive) | – | – | 26.1 µM (inactive) | 22.9 µM (inactive) | – | 34.4 µM (inactive) | – | 25.7 µM (inactive) | 29.6 µM (inactive) | 24.3 µM (inactive) | – | 15.2 µM (inactive) | 17.5 µM (inactive) | 43.3 µM (inactive) |
| O=C(O)c1c2c(cc3c1CC1(Cc4ccccc4C1)C3)CCC2 | 66.5 µM (inactive) | 40.6 µM (inactive) | > 100 µM (inactive) | > 10 µM (inactive) | > 100 µM (inactive) | 24.8 µM (inactive) | 96.2 µM (inactive) | 95.7 µM (inactive) | 67.5 µM (inactive) | 25.9 µM (inactive) | 68.1 µM (inactive) | 63.1 µM (inactive) | > 100 µM (inactive) | 33.9 µM (inactive) | > 100 µM (inactive) | > 100 µM (inactive) | 52.8 µM (inactive) | > 100 µM (inactive) | 30.3 µM (inactive) | – |
| CCOP(=O)(OCC)/C(C#N)=C/c1nccn1C | > 100 µM (inactive) | > 100 µM (inactive) | > 100 µM (inactive) | > 100 µM (inactive) | > 100 µM (inactive) | > 100 µM (inactive) | > 100 µM (inactive) | > 100 µM (inactive) | > 100 µM (inactive) | > 100 µM (inactive) | > 100 µM (inactive) | > 100 µM (inactive) | > 100 µM (inactive) | > 100 µM (inactive) | > 100 µM (inactive) | > 100 µM (inactive) | > 100 µM (inactive) | > 100 µM (inactive) | > 100 µM (inactive) | – |
| CCCCCCCCCCCCCCNC(=O)CCC(NC(=O)c1ccc(N(C)Cc2cnc3nc(N)nc(N)c3n2)cc1)C(=O)NCCCCCCCCCCCCCC (configuration not stated) | 13.9 µM (inactive) | 23.9 µM (inactive) | 6.01 µM (inactive) | 0.698 µM (active) | 9.29 µM (inactive) | 0.437 µM (active) | 4.48 µM (inactive) | 8.73 µM (inactive) | 3.8 µM (inactive) | 0.363 µM (active) | 13.4 µM (inactive) | 4.36 µM (inactive) | 0.665 µM (active) | 3.07 µM (inactive) | 2.49 µM (inactive) | 14.3 µM (inactive) | 0.139 µM (active) | 10.7 µM (inactive) | 13.8 µM (inactive) | – |
| CC(C)C(/C=C/c1ccccc1)=N\NC(=S)NN | > 100 µM (inactive) | 38 µM (inactive) | 99.1 µM (inactive) | 31.5 µM (inactive) | > 84.1 µM (inactive) | 16.5 µM (inactive) | 30.6 µM (inactive) | > 100 µM (inactive) | > 77.3 µM (inactive) | 40.6 µM (inactive) | 21.3 µM (inactive) | 45.2 µM (inactive) | 53.3 µM (inactive) | 14.2 µM (inactive) | 20.7 µM (inactive) | > 100 µM (inactive) | 0.546 µM (active) | > 100 µM (inactive) | 32.3 µM (inactive) | – |
| C/C1=N\[N-]C(=O)c2ccccc2C(=O)N/N=C(\C)c2cccc1n2.O=[N+]([O-])[O-].[Zn+2] | – | > 100 µM (inactive) | > 100 µM (inactive) | > 100 µM (inactive) | > 100 µM (inactive) | – | – | – | > 100 µM (inactive) | > 100 µM (inactive) | > 100 µM (inactive) | > 100 µM (inactive) | – | > 100 µM (inactive) | > 100 µM (inactive) | 19.5 µM (inactive) | – | > 100 µM (inactive) | > 100 µM (inactive) | > 100 µM (inactive) |
| CCOC(=O)Oc1cc2c(c(OC)c1OC)-c1ccc(SC)c(=O)cc1C(NC(=O)C(F)(F)F)CC2 (configuration not stated) | 0.00258 µM (active) | 0.201 µM (active) | 0.0435 µM (active) | < 0.001 µM (active) | 0.00191 µM (active) | 0.00177 µM (active) | < 0.001 µM (active) | 0.00172 µM (active) | 0.0209 µM (active) | 0.00199 µM (active) | < 0.001 µM (active) | 0.0015 µM (active) | 0.026 µM (active) | < 0.001 µM (active) | 0.00196 µM (active) | < 0.001 µM (active) | 0.00128 µM (active) | 0.00223 µM (active) | 0.244 µM (active) | – |
| NC(=O)c1cccc([N+](=O)[O-])c1 | – | > 100 µM (inactive) | > 100 µM (inactive) | – | > 100 µM (inactive) | > 100 µM (inactive) | – | – | > 100 µM (inactive) | > 100 µM (inactive) | > 100 µM (inactive) | > 100 µM (inactive) | – | > 100 µM (inactive) | > 100 µM (inactive) | > 100 µM (inactive) | – | > 100 µM (inactive) | > 100 µM (inactive) | > 100 µM (inactive) |
| C=CC(=O)N1C/C(=C\c2ccc(F)cc2)C(=O)/C(=C/c2ccc(F)cc2)C1 | 1.67 µM (inactive) | 0.887 µM (active) | 0.267 µM (active) | 0.0557 µM (active) | 0.516 µM (active) | 0.0925 µM (active) | 0.168 µM (active) | 0.461 µM (active) | 1.27 µM (inactive) | 0.593 µM (active) | 0.36 µM (active) | 0.28 µM (active) | 0.215 µM (active) | 0.0318 µM (active) | 0.206 µM (active) | 0.35 µM (active) | 0.0491 µM (active) | 1.19 µM (inactive) | 0.849 µM (active) | – |
| CC(C)=CCC/C(C)=C/CC/C(C)=C/CC/C(C)=C/CC/C(C)=C/CC/C(C)=C/CC/C(C)=C/CC/C(C)=C/CC/C(C)=C/CO [SOLANESOL] | > 100 µM (inactive) | > 100 µM (inactive) | > 100 µM (inactive) | > 100 µM (inactive) | > 100 µM (inactive) | > 100 µM (inactive) | 87.7 µM (inactive) | > 100 µM (inactive) | > 100 µM (inactive) | > 100 µM (inactive) | > 100 µM (inactive) | > 100 µM (inactive) | > 100 µM (inactive) | > 100 µM (inactive) | > 100 µM (inactive) | > 100 µM (inactive) | > 100 µM (inactive) | > 100 µM (inactive) | > 100 µM (inactive) | – |
